Among the data in article PMC5602538, “Assessment of the Drug Interaction Potential of Unconjugated and GalNAc3-Conjugated 2′-MOE-ASOs” (Molecular Therapy. Nucleic Acids, 2017) are IC50 and inhibition values, retold here.

For one data set, the target named is CYP2E1 (Homo sapiens, UniProt P05181). Put plainly: CYP2E1 inhibition in cryopreserved human hepatocyte suspensions (chlorzoxazone probe).
A further data set deals with T1, CYP2B6 (Homo sapiens, UniProt P20813).
T1 sequence (P20813 1-491): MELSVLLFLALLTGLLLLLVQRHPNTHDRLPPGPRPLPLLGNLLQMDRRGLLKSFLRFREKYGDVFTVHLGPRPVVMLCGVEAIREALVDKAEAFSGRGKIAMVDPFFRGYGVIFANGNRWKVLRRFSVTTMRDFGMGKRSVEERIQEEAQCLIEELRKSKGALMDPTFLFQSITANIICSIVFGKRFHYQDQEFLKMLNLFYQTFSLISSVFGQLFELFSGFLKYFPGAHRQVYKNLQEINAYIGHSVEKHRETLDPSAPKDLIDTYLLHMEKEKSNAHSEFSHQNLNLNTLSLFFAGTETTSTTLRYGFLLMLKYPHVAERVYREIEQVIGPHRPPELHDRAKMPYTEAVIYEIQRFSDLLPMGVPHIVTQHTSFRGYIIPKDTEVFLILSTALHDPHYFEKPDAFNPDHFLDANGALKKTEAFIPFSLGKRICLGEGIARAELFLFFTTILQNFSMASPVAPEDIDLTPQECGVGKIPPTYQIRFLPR
In words: biochemical.

The test system of another data set is T2, P-gp.
T2 construct: host or cells: MDCK-MDR1 (MDCK cells stably transfected with MDR1)
Put plainly: P-gp inhibition study in MDCK-MDR1 cells. The data set is classed as in vitro ADME. Particulars: human, probe [3H]-quinidine, 100 nM. As to the method: MDCK-MDR1 cells and MDCK-II cells transfected with BCRP were washed with HBSS at 37°C. Wells of the culture plate served as the apical compartment, and 150 μL of HBSS solutions was added to the apical wells. These solutions also contain one of the following: vehicle (for probe substrate controls), 100 μM test article (for test article inhibition experiments), 1 μM Ko143 (for BCRP inhibition), or 3 μM elacridar (for P-gp inhibition). A 96-well receiver tray was prepared with each well containing 300 μL of buffer solution corresponding to the apical wells. Receiver tray wells served as the basal compartment. The plate and receiver tray were assembled and incubated at 37°C for 30 min. The solution was then aspirated from the apical compartment and the 96-well plate was removed from the receiver tray. […] These samples were counted on a 1450 Microbeta (PerkinElmer). For samples containing test articles, samples were quantitated using LC-MS.
Net basal (B) to apical (A) flux (B→A) of the substrate transport by BCRP and P-gp was calculated by subtracting (A→B) flux from (B→A) flux as: netB→Aflux(pmol/min/cm^2)=(B→A)flux-(A→B)flux.
Percent inhibition was calculated by dividing the net flux (B→A) in the presence of the test article or the reference inhibitor by the net flux (B→A) in the absence of the inhibitor as: %inhibition=100−(100×netfluxwithinhibitor/(meannetflux)withoutinhibitor).

Sequence of CYP2E1 (P05181 whole entry): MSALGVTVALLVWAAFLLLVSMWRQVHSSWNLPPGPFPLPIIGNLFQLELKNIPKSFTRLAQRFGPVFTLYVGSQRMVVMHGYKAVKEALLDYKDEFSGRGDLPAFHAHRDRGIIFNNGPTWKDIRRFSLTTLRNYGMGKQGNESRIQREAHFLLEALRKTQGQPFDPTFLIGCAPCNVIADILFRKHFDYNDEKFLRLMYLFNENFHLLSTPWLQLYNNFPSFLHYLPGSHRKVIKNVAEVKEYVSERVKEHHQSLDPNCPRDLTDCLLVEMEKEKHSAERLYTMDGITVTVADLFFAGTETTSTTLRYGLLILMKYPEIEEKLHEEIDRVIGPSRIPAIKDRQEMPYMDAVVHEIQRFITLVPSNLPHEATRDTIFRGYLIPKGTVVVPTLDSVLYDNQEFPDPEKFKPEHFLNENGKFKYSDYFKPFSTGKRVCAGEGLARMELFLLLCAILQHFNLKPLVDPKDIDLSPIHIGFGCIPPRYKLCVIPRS
Procedure for CYP2B6: (§1) Preincubations were performed in 50 μL of Williams’ Medium E with 2 mM salicylamide. The salicylamide was included to reduce possible phase II conjugation to the precursor phase I metabolites. […] Human hepatocytes (pooled from 5 donors) were thawed and prepared according to the vendor’s protocol. […] Incubations were carried out at 37°C with 5% CO2. The incubation time was 45 min for phenacetin, diclofenac, dextromethorphan, midazolam, bupropion, chlorzoxazone, and testosterone and 90 min for paclitaxel and (S)-mephenytoin. The reactions were stopped by adding 200 μL of ice-cold acetonitrile (can) with tolbutamide (100 ng/mL) as the internal standard to 100 μL of hepatocyte suspension (1:2, v/v). The 96-well plate was then vortexed at 1,700 rpm for 3 min and centrifuged at 3,500 rpm for 10 min at 20°C. The supernatants were analyzed using liquid chromatography-tandem MS (LC-MS/MS).
Procedure for CYP2E1: as §1

As usually defined, the IC50 is the midpoint of a concentration-inhibition curve. A lower IC50 goes with inhibition by little substance. Consider `Cc1ncsc1CCCl` [chlormethiazole], for which the IC50 against CYP2E1 was 1.08 nM.

On CYP2B6, `COC(=O)[C@H](c1ccccc1Cl)N1CCc2sccc2C1` [clopidogrel] displayed an IC50 of 163 nM. One may read the inhibition as the relative decrease from the control value, in per cent. Turning to `COc1cc2c(cc1OC)CN(CCc1ccc(NC(=O)c3cccc4c(=O)c5cccc(OC)c5[nH]c34)cc1)CC2` [elacridar], in the data set on P-gp, the inhibition at 90 min, 3 μM was 90.2 ± 1.42%.
